Consider seven compounds from ChEMBL document CHEMBL5303573, “Mapping human microbiome drug metabolism by gut bacteria and their genes” (Nature, 2019).

Data set [1] can be described thus: The drug is tested on Anaerococcus hydrogenalis strain: DSM7454 for biotransformation. The drug concentrations were measured before and after a 12-h incubation by liquid-chromatography-coupled mass spectrometry (LC–MS). To be noted: 2 µM.
The conditions of data set [2]: bifidobacterium adolescentis, 12 h, 2 µM.
Description: The drug is tested on Bifidobacterium adolescentis strain: ATCC 15703 for biotransformation. The drug concentrations were measured before and after a 12-h incubation by liquid-chromatography-coupled mass spectrometry (LC–MS)
A short description of data set [3]: The drug is tested on Eubacterium hallii strain: DSM3353 for biotransformation. The drug concentrations were measured before and after a 12-h incubation by liquid-chromatography-coupled mass spectrometry (LC–MS). The note with it: anaerobutyricum hallii, 2 µM.
A short description of data set [4]: The drug is tested on Blautia hansenii strain: DSM20583 for biotransformation. The drug concentrations were measured before and after a 12-h incubation by liquid-chromatography-coupled mass spectrometry (LC–MS). The note with it: 2 µM.
A short description of data set [5]: The drug is tested on Bacteroides coprophilus strain: DSM18228 for biotransformation. The drug concentrations were measured before and after a 12-h incubation by liquid-chromatography-coupled mass spectrometry (LC–MS). To be noted: 2 µM.
Data set [6] in a line: The drug is tested on Bacteroides vulgatus strain: ATCC8482 for biotransformation. The drug concentrations were measured before and after a 12-h incubation by liquid-chromatography-coupled mass spectrometry (LC–MS). The note with it: phocaeicola vulgatus, 2 µM.
The nature of data set [7]: The drug is tested on Bacteroides dorei strain: DSM17855 for biotransformation. The drug concentrations were measured before and after a 12-h incubation by liquid-chromatography-coupled mass spectrometry (LC–MS). To be noted: phocaeicola dorei, 2 µM.
Data set [8] can be described thus: The drug is tested on Subdoligranulum variabile strain: DSM15176 for biotransformation. The drug concentrations were measured before and after a 12-h incubation by liquid-chromatography-coupled mass spectrometry (LC–MS). The note with it: 2 µM.
For data set [9] the following is noted: bacteroides fragilis, 12 h, 2 µM.
Description: The drug is tested on Bacteroides fragilis strain: NCTC 9343 for biotransformation. The drug concentrations were measured before and after a 12-h incubation by liquid-chromatography-coupled mass spectrometry (LC–MS)
For data set [10] the following is noted: bacteroides stercoris, 12 h, 2 µM.
Description: The drug is tested on Bacteroides stercoris strain: ATCC43183 for biotransformation. The drug concentrations were measured before and after a 12-h incubation by liquid-chromatography-coupled mass spectrometry (LC–MS)
Data set [11] in a line: The drug is tested on Collinsella intestinalis strain: DSM13280 for biotransformation. The drug concentrations were measured before and after a 12-h incubation by liquid-chromatography-coupled mass spectrometry (LC–MS). The note with it: 2 µM.
Data set [12] can be described thus: The drug is tested on Coprococcus comes strain: ATCC27758 for biotransformation. The drug concentrations were measured before and after a 12-h incubation by liquid-chromatography-coupled mass spectrometry (LC–MS). It counts as ADME. Further details: dose 2 uM, timepoint 0 vs 12 hours. The note with it: 2 µM.
For data set [13] the following is noted: bacteroides fragilis, 12 h, 2 µM. This is another data set of the same source.
Description: The drug is tested on Bacteroides fragilis strain: 3397 (T10) for biotransformation. The drug concentrations were measured before and after a 12-h incubation by liquid-chromatography-coupled mass spectrometry (LC–MS)
Data set [14] in a line: The drug is tested on Providencia rettgeri strain: DSM1131 for biotransformation. The drug concentrations were measured before and after a 12-h incubation by liquid-chromatography-coupled mass spectrometry (LC–MS). It counts as ADME. Further details: dose 2 uM, timepoint 0 vs 12 hours. To be noted: 2 µM.
Data set [15] is described as follows: The drug is tested on Providencia stuartii strain: ATCC25827 for biotransformation. The drug concentrations were measured before and after a 12-h incubation by liquid-chromatography-coupled mass spectrometry (LC–MS). To be noted: 2 µM.
For data set [16] the following is noted: anaerostipes sp., 12 h, 2 µM.
Description: The drug is tested on Anaerostipes sp. strain: fecal isolate for biotransformation. The drug concentrations were measured before and after a 12-h incubation by liquid-chromatography-coupled mass spectrometry (LC–MS)
The nature of data set [17]: The drug is tested on Parabacteroides merdae strain: ATCC43184 for biotransformation. The drug concentrations were measured before and after a 12-h incubation by liquid-chromatography-coupled mass spectrometry (LC–MS). The note with it: 2 µM.
Data set [18] can be described thus: The drug is tested on Bacteroides ovatus strain: ATCC8483 for biotransformation. The drug concentrations were measured before and after a 12-h incubation by liquid-chromatography-coupled mass spectrometry (LC–MS). To be noted: 2 µM.
The conditions of data set [19]: bacteroides fragilis, 12 h, 2 µM. The source holds these as a separate data set.
Description: The drug is tested on Bacteroides fragilis strain: DS-208 for biotransformation. The drug concentrations were measured before and after a 12-h incubation by liquid-chromatography-coupled mass spectrometry (LC–MS)
Data set [20] in a line: The drug is tested on Bacteroides fragilis strain: ATCC43859 for biotransformation. The drug concentrations were measured before and after a 12-h incubation by liquid-chromatography-coupled mass spectrometry (LC–MS). The note with it: 2 µM.

In the case of `CN1[C@@H]2CC[C@H]1C[C@@H](OC(=O)C(CO)c1ccccc1)C2` (stereo partly specified) [ATROPINE], the “Bacterial Biotransformation” value in data set [1], in data set [2], in [3], in data set [4], in data set [5] and in data set [6] was “Compound NOT metabolized” each time. Also, the “Bacterial Biotransformation” value in data set [7], in [8], in [9], in [10], in data set [11] and in data set [12] was “Compound NOT metabolized” each time. The “Bacterial Biotransformation” value in [13] and in data set [14] was “Compound NOT metabolized” throughout.

As for `CCOC(=O)[C@H](CCc1ccccc1)N[C@@H](C)C(=O)N1CCC[C@H]1C(=O)O.O=C(O)/C=C\C(=O)O` [ENALAPRIL MALEATE], the “Bacterial Biotransformation” value in data set [15] was “Compound NOT metabolized”; in data set [1], “Compound NOT metabolized”; in data set [2], “Compound NOT metabolized”; in data set [3], “Compound NOT metabolized”; in data set [4], “Compound metabolized”; in data set [16], “Compound NOT metabolized”. Moreover, the “Bacterial Biotransformation” value in data set [6], in [8], in [9], in data set [10], in data set [17] and in [18] was “Compound NOT metabolized” throughout. In addition, the “Bacterial Biotransformation” value in data set [11], in data set [19], in [12], in data set [13] and in data set [14] was “Compound NOT metabolized” in each case.

`CC(C)c1c(CN(C)C(C)Cc2ccccc2)n(C)n(-c2ccccc2)c1=O` (stereo unspecified) [FAMPROFAZONE]: the “Bacterial Biotransformation” value is “Compound NOT metabolized” in data set [15]; “Compound metabolized” in data set [1]; “Compound NOT metabolized” in data set [2]; “Compound NOT metabolized” in data set [3]; “Compound metabolized” in data set [4]; “Compound metabolized” in data set [16]. Further, the “Bacterial Biotransformation” value in data set [5], in data set [6], in data set [7], in data set [8], in data set [9] and in data set [10] was “Compound metabolized” throughout. Also, the “Bacterial Biotransformation” value in [17] is on record as “Compound metabolized”; in data set [18], “Compound metabolized”; in data set [19], “Compound metabolized”; in [12], “Compound NOT metabolized”; in data set [13], “Compound metabolized”; in data set [14], “Compound NOT metabolized”.

Turning to `COC(=O)Nc1nc2ccc(C(=O)c3ccccc3)cc2[nH]1` [MEBENDAZOLE], the “Bacterial Biotransformation” value in data set [1] is recorded as “Compound NOT metabolized”; in data set [3] it was “Compound NOT metabolized”; in data set [4] it was “Compound metabolized”; in data set [16] it was “Compound NOT metabolized”; in [5], “Compound NOT metabolized”; in data set [6], “Compound metabolized”. The “Bacterial Biotransformation” value is reported as “Compound metabolized” in data set [7]; “Compound NOT metabolized” in data set [8]; “Compound metabolized” in data set [9]; “Compound metabolized” in data set [10]; “Compound NOT metabolized” in data set [17]; “Compound NOT metabolized” in data set [18]. In addition, the “Bacterial Biotransformation” value in data set [11] is “Compound NOT metabolized”; in data set [19] it was “Compound metabolized”; in data set [12] it was “Compound NOT metabolized”; in data set [14] it was “Compound NOT metabolized”.

Turning to `COc1ccccc1N1CCN(CC(O)COc2cccc3ccccc23)CC1` (stereo unspecified) [NAFTOPIDIL], the “Bacterial Biotransformation” value in [15], in data set [1], in data set [2], in data set [3], in data set [4] and in data set [16] was “Compound NOT metabolized” in each case. For the same compound, the “Bacterial Biotransformation” value in [5], in data set [6], in data set [7], in data set [8], in data set [9] and in data set [10] was “Compound NOT metabolized” in each case. Also, the “Bacterial Biotransformation” value in data set [17], in data set [18], in data set [11], in data set [19], in data set [13] and in data set [14] was “Compound NOT metabolized” throughout.

On to `CCN(CC)CC#CCOC(=O)C(O)(c1ccccc1)C1CCCCC1.Cl` (stereo unspecified) [OXYBUTYNIN CHLORIDE], for which the “Bacterial Biotransformation” value is listed as “Compound NOT metabolized” in [15]; “Compound NOT metabolized” in data set [1]; “Compound NOT metabolized” in [2]; “Compound NOT metabolized” in [3]; “Compound metabolized” in data set [4]; “Compound NOT metabolized” in data set [16]. For the same compound, the “Bacterial Biotransformation” value in [6] is listed as “Compound metabolized”; in data set [7], “Compound metabolized”; in [8] it was “Compound NOT metabolized”; in data set [10] it was “Compound NOT metabolized”; in data set [17], “Compound NOT metabolized”; in [18], “Compound NOT metabolized”. The “Bacterial Biotransformation” value in data set [11], in data set [19] and in data set [14] was “Compound NOT metabolized” each time.

Take `CC(=O)CCCCn1c(=O)c2c(ncn2C)n(C)c1=O` [PENTOXIFYLLINE]: the “Bacterial Biotransformation” value in data set [15], in data set [1], in data set [2], in data set [3], in [4] and in data set [16] was “Compound NOT metabolized” each time. For the same compound, the “Bacterial Biotransformation” value in data set [5], in data set [7], in data set [8], in [9], in [10] and in [17] was “Compound NOT metabolized” each time. Also, the “Bacterial Biotransformation” value in data set [18], in data set [11], in [19], in [12], in data set [13] and in [20] was “Compound NOT metabolized” each time.
